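The compound was tested at five concentrations on cells cultured in 96-well plates, with a 48-hour exposure period. TGI marks complete inhibition of growth.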
What was measured:
Experiment in all cases: DTP human tumour cell line panel, 48 h
[1] = test system: HOP-62 NSCLC
[2] = test system: ACHN renal
[3] = test system: A498 renal
[4] = test system: HT29 colon
[5] = test system: NCI-H23 lung
[6] = test system: HOP-92 NSCLC
[7] = test system: UACC-62 melanoma
[8] = test system: SK-MEL-2 melanoma

SMILES	TGI [1] [µM]	TGI [2] [µM]	TGI [3] [µM]	TGI [4] [µM]	TGI [5] [µM]	TGI [6] [µM]	TGI [7] [µM]	TGI [8] [µM]
CN=C(N=Nc1c(O)[nH]c2ccccc12)SCC(=O)c1ccc(Br)cc1	20.7	52.2	37.2	> 43.5	51.1	> 52.4	> 100	> 100
CCOC(=O)CC[C@H](NC(=O)[C@H](N)Cc1ccc(N(CCCl)CCCl)cc1)C(=O)OCC	> 59.6	> 100	> 100	> 78	12.9	18.3	15.2	63.2
CC(CO)(CO)N1C(=O)C2C3C=CC(C3)C2C1=O (configuration not stated)	> 100	> 100	> 100	> 100	> 100	> 100	> 100	> 100
Nc1nc(N)c2c3c(cnc2n1)CC(c1ccccc1)CC3 (configuration not stated)	76.7	31.7	> 100	66.2			> 100	> 100
COc1ccc2cc(/C=N/NC(=O)Nc3ccccc3)ccc2c1	> 100		> 100	> 100	> 100	> 100	> 100	> 100
O=C(Oc1ccccn1)c1cc2cc(CCl)ccc2oc1=O	52.9	> 100	> 100	> 100	62.7	39.3	85.6	> 100
CC(=O)c1[nH]c(NCc2ccccc2)c(C(=S)Nc2ccccc2)c1N	40	85.2	53.7	> 100	> 100	59.3	32.5	1.07
N#Cc1c(-c2ccc(Cl)cc2Cl)nc2[nH][nH]c(=S)n2c1=O	> 100	> 100	> 100	> 100	> 100	> 100	> 100	> 100
COc1cc2c(C)cc(O)cc2c2cc(O)c(C)cc12	15.5	22.6	21.3	45.8	21.5	22.3	22.3	31.3
O=[N+]([O-])/C(C(Cl)=C(Cl)Cl)=C(/Cl)Sc1ccccc1	9.33	3.93	4.19	6.12	4.1	3.85	3.36	27.4
O=Cc1[nH]c(=O)[nH]c(=O)c1C(=O)O	> 100	> 100		> 100	> 100	> 100	> 100	> 100
COC(=O)C1=C(C(=O)NNc2ccccc2)N(c2cccnc2Cl)C(c2ccccc2)=CC1c1ccccc1 (configuration not stated)	> 100	> 100	> 100	> 100	> 100		> 100	76.6
CC1CCC(C(C)C)C(OC(=O)NCn2cc(-c3ccccc3)nn2)C1 (configuration not stated)	> 100	> 100		> 100	> 100	> 100		> 100
CN(C)C1(N(C)C)Oc2c(c(=O)n(C)c(=O)n2C)C(c2ccccc2)C1(F)F (configuration not stated)	> 100	> 100	> 100		> 100	> 100	> 100	> 100
COC(=O)c1cc2ccc(N)nc2[nH]c1=O	> 100	> 100	> 100		> 100	> 100		> 100
CC(O)C1(CNc2cc(Cl)nc(N)n2)CCC1 (configuration not stated)	> 100	> 100		> 100	> 100	> 100	> 100	> 100
COC(CNC(=O)C(C)NC(=O)/C=C/c1ccccc1)OC (configuration not stated)		> 100		> 100	> 100	> 100	> 100	> 100
O=c1cnn(C/C=C/CO)c(=O)[nH]1	> 100	> 100	> 100		> 100	> 100		> 100
Cc1cc(S(=O)(=O)Nc2n[nH]c(N)n2)c(SCC(=O)O)cc1Cl	> 10	> 10	> 10	> 10	> 10	> 10		> 10
CSc1nc(Nc2cccc(C(F)(F)F)c2)c2c(N)nn(C)c2n1	> 100	> 100	> 100	> 100	> 100		> 100	> 100
CC(C)(C)OC(=O)[C@H]1CCC(=S)N1Cc1ccccc1		> 100	> 100		> 100	> 100	> 100	> 100
N#Cc1c(N)n(-c2cccc(C(=O)O)c2)c(=O)c2cc([N+](=O)[O-])ccc12		> 100	> 100	> 100	> 100	> 100	> 100	> 100
COc1ccc(P2(=S)OC(C)(C)C(C)(C)O2)cc1	> 100	> 100		> 100	> 100	> 100	> 100	> 100
CC12CC(c3ccccc3O1)C(C(=O)Nc1ccc(Cl)cc1Cl)C(=O)N2 (configuration not stated)	48.4	67.3		> 100	> 100		> 100	> 100
O=C(/C=C/c1cc2ccccc2o1)N1CCN(c2ccccn2)CC1	> 100		> 100	> 100	> 100	> 100	> 100	> 100
COC(=O)C(Cc1c[nH]c2ccccc12)NP(=O)(O)OCC1OC(n2cc(I)c(=O)[nH]c2=O)CC1O (configuration not stated)	> 100	> 100	> 100	> 100	> 100	> 100	> 100	
O=C(O)[C@@H]1CCS(=O)(=O)N1	> 100	> 100	> 100	> 100	> 100		> 100	> 100
O=C1/C(=C/c2ccccc2S)N=C(c2ccccc2)N1c1nc2c(Cl)cc(Cl)cc2s1	47.2	58	40.7	40.1		49.6	57.5	52.9

Reference: PubChem BioAssay (NCI)
